Data reported in the supplement of paper PMC2824726.
Values joined by “and” are separate entries in the source; they are usually repeats but may differ in a detail not shown here. Equal entries are not always repeated.

system: MDA-MB-231; experiment: shRNA barcode abundance ratio t_end/t_zero (depletion over 4 weeks of proliferation) (log2 ratio); higher = less depletion (weaker anti-proliferative effect of the shRNA); details: time after t zero 28 days
Summary of the method: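 Cells of the MDA-MB-231 line were transduced with a pooled lentiviral shRNA library at an MOI of 0.3 and selected in 0.5 μg/ml puromycin, and genomic DNA was collected from three biological replicates at 5 days (t_zero) and 33 days post-infection. The barcodes were amplified by PCR, labelled with biotin and hybridised for 16 h at 45°C to Geniom One tiling arrays carrying six 25-nt probes per barcode, then detected with streptavidin phycoerythrin. For the abundance ratio, each t_end/t_zero signal ratio is normalised to the subarray median and averaged over background-filtered probes. This average is taken on a log2 scale.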

Sequence | shRNA barcode abundance ratio t end/t zero (log2)
GCAAATTTCATGACCAGTAAA (targeted gene: TDGF1) | -0.234
CCGTTATGAAAGAGAAATGAA (targeted gene: HMGB1) | -0.0571
CGGAGAGTTATCCTGATAAAT (targeted gene: SFRP1) | -0.114
CCAAATTGTGTTTGATGGATT (targeted gene: ESR1) | 0.202
TCAAATTGCGGCACATGTCAT (targeted gene: CD40LG) | -0.0903
GCCCTGTACTTTAACCCAATT (targeted gene: BFAR) | 0.0378
CCTCACTTTCTCCAAGAAGTT (targeted gene: MAPK8IP2) | 0.0658
TCTGAGGAAGAGATCATCAAA (targeted gene: PEA15) | -0.849
AGGCCTAGAGGTAACCAATAA (targeted gene: PRDX2) | -0.0855
ACTTCAGAAATGGCACGATAA (targeted gene: AATF) | 0.24
GCACAGCATCAAACCAAGTTA (targeted gene: MLH1) | 0.165
GCACCTTGTTGTCATGAACTT (targeted gene: DAD1) | 0.0822 and 0.0853
GCGCACAGGCTTTATCGAGAA (targeted gene: IGFBP3) | -0.0187
CCTGACCTCCCTCTAATTTAT (targeted gene: IL10) | 0.309
CCAATGATGCTGCTCAAGTTA (targeted gene: ABCB1) | 0.272
GCTGTGGTTAATTACACATTA (targeted gene: ACVR1) | -0.208
CCATTTACAGCCATTTCTAAA (targeted gene: ESR1) | 0.128
GGACTCTAGAATGTCCATATT (targeted gene: NUAK2) | 0.326
GGTGACTATACAGTCATTTAA (targeted gene: ATM) | -0.167
CAACGGAACTTGTTTGCTCTT (targeted gene: SOCS3) | -0.536

Sequence | shRNA barcode abundance ratio t end/t zero (log2)
CCATATAGTTCCTTGGGATTA (targeted gene: BCL2L2) | 0.203
GCACTTGCCTTTAAACTATGT (targeted gene: NFIA) | 0.384
CCCGGGACTCCTGAGAACAAT (targeted gene: PRLR) | -0.387
GGCATCAGATGAATTGTTAAT (targeted gene: IL3) | 0.161
GCACAGGCTTTATCGAGAATA (targeted gene: IGFBP3) | 0.0415
GGCCATTGTCACAGAGGATAA (targeted gene: MLH1) | 0.62
GGCCATTCATTTAATGTGCAT (targeted gene: HBXIP) | 0.497
GGCTTTGTCTTTACAGGTAAA (targeted gene: NAIP) | 0.603
GGACATGACAACTCATCTCAT (targeted gene: IL6) | 0.175
GCAGGTATTTGACATATTAAA (targeted gene: NFKB1) | 0.38
GCTCTTCCACTCAGGTGAGAA (targeted gene: LOC284939) | -0.0337
GCTCACTACCAAATGTTAATA (targeted gene: BAD) | 0.223
GCTAACTGTGTGTACATATAT (targeted gene: PEA15) | -0.216
GGGCAAGTTTCCATCATCTAT (targeted gene: TDGF1) | -0.11
GCCGAAGATTTCACAGTCAAA (targeted gene: IGF1R) | 0.225
CCTCAGATTGTTGTTGTTAAT (targeted gene: IL6) | 0.311
GGTGCCTTGAGGAATACAGAA (targeted gene: NT5C3) | 0.235
CGCAGATAGGAGTAGTCTTTA (targeted gene: NFIA) | 0.432
GGCCCAGTGTTTCTTCTGCTT (targeted gene: BIRC5) | -0.948
CCTTCCAGAGTTATGGAAATT (targeted gene: BCL2A1) | 0.456
